The results in this text go back to EP1247803A2, “Indolinone compounds suitable for modulation of protein kinases” (Sugen, Inc., priority 1996, dated 1998).

One assay concerns the target T1, FLK-1 receptor (Mus musculus, UniProt P35918).
T1 construct: expressed in transfected cells; host or cells: NIH3T3 C7#3
The assay is described as follows: FLK-1 ELISA (kinase activity of the FLK-1 receptor in FLK-1/NIH3T3 cells, VEGF stimulated). The class given is cell-based. In a few lines: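 An ELISA using affinity-purified rabbit anti-FLK-1 antiserum on anti-rabbit IgG-coated plates measured VEGF-stimulated FLK-1 kinase activity. NIH3T3 C7#3 cells carrying FLK-1 were serum-starved (0.1% FBS) overnight, then exposed to compound (final 1:200 dilution, 0.5% DMSO) for two hours at 37 °C.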
Background: ELISA stands for enzyme-linked immunosorbent assay.

In another assay the target is PDGF-R (Homo sapiens, UniProt P09619). Kind of assay: PDGF-R ELISA. Type of assay: cell-based. The source says: A PDGF-R ELISA is described in International Patent Publication No. WO 96/40116, published December 19, 1996 by Tang et al.
Chain of PDGF-R (P09619 33-1106, species assumed): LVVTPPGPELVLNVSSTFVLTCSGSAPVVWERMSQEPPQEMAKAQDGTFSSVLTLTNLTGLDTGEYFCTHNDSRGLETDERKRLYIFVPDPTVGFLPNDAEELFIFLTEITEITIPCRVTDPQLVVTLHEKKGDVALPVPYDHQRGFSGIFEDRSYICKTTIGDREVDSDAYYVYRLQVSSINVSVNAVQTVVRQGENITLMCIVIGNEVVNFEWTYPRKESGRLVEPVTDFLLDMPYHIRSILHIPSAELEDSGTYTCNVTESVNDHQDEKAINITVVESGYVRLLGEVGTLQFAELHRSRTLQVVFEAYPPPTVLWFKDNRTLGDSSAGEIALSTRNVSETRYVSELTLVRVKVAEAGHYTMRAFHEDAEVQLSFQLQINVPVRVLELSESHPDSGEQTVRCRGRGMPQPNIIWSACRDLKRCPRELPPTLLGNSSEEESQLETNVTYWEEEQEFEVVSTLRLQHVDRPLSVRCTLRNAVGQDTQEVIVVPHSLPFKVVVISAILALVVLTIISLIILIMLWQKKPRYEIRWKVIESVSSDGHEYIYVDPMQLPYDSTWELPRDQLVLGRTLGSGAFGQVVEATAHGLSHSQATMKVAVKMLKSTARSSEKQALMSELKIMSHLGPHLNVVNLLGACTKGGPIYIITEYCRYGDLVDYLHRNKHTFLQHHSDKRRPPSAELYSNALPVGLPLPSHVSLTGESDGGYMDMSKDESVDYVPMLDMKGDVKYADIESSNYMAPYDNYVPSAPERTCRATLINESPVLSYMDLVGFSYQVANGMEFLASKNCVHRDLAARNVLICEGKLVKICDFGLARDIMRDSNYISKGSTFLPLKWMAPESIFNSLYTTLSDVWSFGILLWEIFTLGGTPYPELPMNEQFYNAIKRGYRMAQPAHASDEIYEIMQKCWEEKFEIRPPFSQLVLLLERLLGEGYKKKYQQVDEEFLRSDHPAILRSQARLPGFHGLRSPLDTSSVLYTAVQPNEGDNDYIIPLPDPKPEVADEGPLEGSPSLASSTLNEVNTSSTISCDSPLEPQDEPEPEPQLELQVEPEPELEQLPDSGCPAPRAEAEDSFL

T1 sequence (P35918 20-1345): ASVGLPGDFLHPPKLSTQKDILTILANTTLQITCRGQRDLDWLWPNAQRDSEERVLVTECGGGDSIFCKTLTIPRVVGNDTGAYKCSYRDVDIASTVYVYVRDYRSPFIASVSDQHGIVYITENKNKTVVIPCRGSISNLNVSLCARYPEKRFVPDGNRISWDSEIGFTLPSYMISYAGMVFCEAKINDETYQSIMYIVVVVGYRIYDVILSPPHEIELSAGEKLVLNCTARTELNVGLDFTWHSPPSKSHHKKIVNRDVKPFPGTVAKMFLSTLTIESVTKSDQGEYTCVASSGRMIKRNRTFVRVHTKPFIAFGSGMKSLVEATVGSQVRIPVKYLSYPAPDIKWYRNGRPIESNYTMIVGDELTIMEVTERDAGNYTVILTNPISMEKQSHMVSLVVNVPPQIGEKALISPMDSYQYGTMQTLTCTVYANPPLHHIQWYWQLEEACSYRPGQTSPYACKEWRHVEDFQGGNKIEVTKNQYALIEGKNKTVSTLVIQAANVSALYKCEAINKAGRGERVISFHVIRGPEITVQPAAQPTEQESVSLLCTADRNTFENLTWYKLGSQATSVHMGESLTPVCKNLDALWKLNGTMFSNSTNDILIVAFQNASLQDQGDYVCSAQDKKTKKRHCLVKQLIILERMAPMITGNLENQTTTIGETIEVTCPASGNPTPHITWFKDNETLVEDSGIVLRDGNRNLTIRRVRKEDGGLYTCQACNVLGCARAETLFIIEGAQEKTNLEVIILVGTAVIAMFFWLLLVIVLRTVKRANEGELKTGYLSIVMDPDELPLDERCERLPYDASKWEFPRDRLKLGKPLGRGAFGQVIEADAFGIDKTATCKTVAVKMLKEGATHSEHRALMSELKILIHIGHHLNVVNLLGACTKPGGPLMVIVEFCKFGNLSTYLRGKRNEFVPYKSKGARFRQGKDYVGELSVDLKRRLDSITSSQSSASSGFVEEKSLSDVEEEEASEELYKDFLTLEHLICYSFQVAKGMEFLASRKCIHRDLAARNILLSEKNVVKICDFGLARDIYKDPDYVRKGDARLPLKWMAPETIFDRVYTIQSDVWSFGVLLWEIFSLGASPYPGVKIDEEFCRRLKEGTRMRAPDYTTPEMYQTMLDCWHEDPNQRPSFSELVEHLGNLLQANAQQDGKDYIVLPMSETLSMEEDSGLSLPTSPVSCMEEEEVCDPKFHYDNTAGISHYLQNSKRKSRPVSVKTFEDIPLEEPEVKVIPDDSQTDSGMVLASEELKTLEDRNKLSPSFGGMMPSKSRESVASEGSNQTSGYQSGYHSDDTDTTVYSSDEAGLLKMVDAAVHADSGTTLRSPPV

Take `CNS(=O)(=O)c1ccc2c(c1)C(=Cc1ccc(Br)s1)C(=O)N2` [10734/D11]: the “Fik Kinase %Inhibition” value at FLK-1 receptor is listed as 9.8%. At PDGF-R, the “PDGF Kinase %Inhibition” value is 17.0%.
The like results for `CC(C)(C)c1cc(C=C2C(=O)Nc3ccc(S(=O)(=O)N4CCOCC4)cc32)cc(C(C)(C)C)c1OCc1ccccc1` [10733/F05] were, in that order, 26.2% and -25.1%.
With `CCOc1cccc(C=C2C(=O)Nc3c(Br)cc(Br)cc32)c1O` [10734/A02], the “Fik Kinase %Inhibition” value on FLK-1 receptor is listed as 4.1%. Further, the “PDGF Kinase %Inhibition” value on PDGF-R is on record as -3.8%.
For `COc1c([N+](=O)[O-])cc(C=C2C(=O)Nc3ccc(S(=O)(=O)N4CCOCC4)cc32)cc1C(C)(C)C` [10733/F03], in that order: 17.5% and 24.5%.
For `CCN(CC)c1ccc(C=C2C(=O)Nc3ccc(I)cc32)c(O)c1` [10734/B05], in that order: -2.3% and 56.3%.
For `Cc1c(Br)ccc2c1C(=Cc1ccc([N+](=O)[O-])cc1)C(=O)N2` [10734/C06], in that order: -1.7% and -0.2%.
On to `COc1c([N+](=O)[O-])cc(C=C2C(=O)Nc3ccc(S(=O)(=O)Nc4ccc(C(F)(F)F)cc4)cc32)cc1C(C)(C)C` [10733/E03], for which, at FLK-1 receptor, the “Fik Kinase %Inhibition” value was 42.6%. Also, the “PDGF Kinase %Inhibition” value on PDGF-R is listed as 43.1%.
`COc1c(C(C)(C)C)cc(C=C2C(=O)Nc3ccc(S(=O)(=O)N4CCOCC4)cc32)cc1C(C)(C)C` [10733/F04]: on FLK-1 receptor, the “Fik Kinase %Inhibition” value stood at 21.4%. Further, on PDGF-R, the “PDGF Kinase %Inhibition” value is on record as -28.7%.
For the compound `CCOc1cccc(C=C2C(=O)Nc3ccc(S(=O)(=O)Nc4ccc(C(F)(F)F)cc4)cc32)c1O` [10734/E02], the “Fik Kinase %Inhibition” value at FLK-1 receptor stood at 7.9%. For the same compound, on PDGF-R, the “PDGF Kinase %Inhibition” value stood at 50.1%.
For `O=C1Nc2ccc(I)cc2C1=Cc1cccc(F)c1O` [10734/B08], in that order: -0.5% and -2.4%.
For `CCOc1cccc(C=C2C(=O)Nc3ccc(S(=O)(=O)NC)cc32)c1O` [10734/D02], in that order: -11.5% and 6.4%.
For `O=C1Nc2ccc(CCCl)cc2C1=Cc1cc([N+](=O)[O-])ccc1O` [10733/G10], in that order: 12.7% and -58.0%.
Regarding `CCOc1cccc(C=C2C(=O)Nc3ccc(Br)c(C)c32)c1O` [10734/C02], at FLK-1 receptor, the “Fik Kinase %Inhibition” value is -3.9%. The “PDGF Kinase %Inhibition” value at PDGF-R stood at 36.0%.
The like results for `O=C1Nc2c(Br)cc(Br)cc2C1=Cc1cc(Br)cc(Br)c1O` [10734/A07] were, in that order, -9.4% and 21.9%.
As for `COc1c(C)cc(C=C2C(=O)Nc3ccc(S(=O)(=O)Nc4ccc(C(F)(F)F)cc4)cc32)cc1C` [10733/E06], the “Fik Kinase %Inhibition” value on FLK-1 receptor came to 13.5%. The “PDGF Kinase %Inhibition” value at PDGF-R is reported as 22.4%.
For `CNS(=O)(=O)c1ccc2c(c1)C(=Cc1ccc([N+](=O)[O-])cc1)C(=O)N2` [10734/D06], in that order: 0.0% and -9.1%.
The like results for `O=C1Nc2ccc(I)cc2C1=Cc1ccc([N+](=O)[O-])cc1` [10734/B06] were, in that order, -0.9% and 0.2%.
The like results for `CCN(CC)c1ccc(C=C2C(=O)Nc3ccc(Br)c(C)c32)c(O)c1` [10734/C05] were, in that order, -10.3% and 3.8%.
On to `COc1cc(Br)cc(C=C2C(=O)Nc3ccc(S(=O)(=O)N4CCOCC4)cc32)c1O` [10733/F08], for which the “Fik Kinase %Inhibition” value on FLK-1 receptor is -13.2%. Also, the “PDGF Kinase %Inhibition” value at PDGF-R was -32.4%.
As for `O=C1Nc2ccc(I)cc2C1=Cc1cc(Cl)ccc1O` [10734/B04], the “Fik Kinase %Inhibition” value at FLK-1 receptor was 2.8%. For the same compound, the “PDGF Kinase %Inhibition” value at PDGF-R amounted to 14.4%.
For `O=C1Nc2ccc(S(=O)(=O)Nc3ccc(C(F)(F)F)cc3)cc2C1=Cc1cc(Br)ccc1O` [10733/E09], in that order: 13.4% and 35.8%.
Take `O=C1Nc2c(Br)cc(Br)cc2C1=Cc1cc(Cl)cc(Cl)c1O` [10734/A03]: at FLK-1 receptor, the “Fik Kinase %Inhibition” value worked out at 10.1%. Moreover, the “PDGF Kinase %Inhibition” value at PDGF-R stood at 22.3%.
The like results for `COc1c(C)cc(C=C2C(=O)Nc3ccc(CCCl)cc32)cc1C` [10733/G06] were, in that order, 37.0% and 0.1%.
For `O=C1Nc2ccc(I)cc2C1=Cc1ccc(Br)s1` [10734/B11], in that order: 12.6% and -5.5%.
The like results for `O=C1Nc2ccc(I)cc2C1=Cc1cc(Br)cc(Br)c1O` [10734/B07] were, in that order, 9.1% and 18.8%.
As to `CNS(=O)(=O)c1ccc2c(c1)C(=Cc1ccc(C(C)(C)C)cc1)C(=O)N2` [10734/D10], the “Fik Kinase %Inhibition” value on FLK-1 receptor came out at 11.1%. The “PDGF Kinase %Inhibition” value on PDGF-R stood at 9.9%.
The like results for `Cc1c(Br)ccc2c1C(=Cc1cc(Cl)cc(Cl)c1O)C(=O)N2` [10734/C03] were, in that order, -5.6% and 24.5%.
The like results for `O=C1Nc2c(Br)cc(Br)cc2C1=Cc1cc(Cl)ccc1O` [10734/A04] were, in that order, 0.6% and 11.7%.
The like results for `O=C1Nc2c(Br)cc(Br)cc2C1=Cc1ccc([N+](=O)[O-])cc1` [10734/A06] were, in that order, -6.4% and -9.9%.
